According to patent publication US20230167142A1, “METHODS FOR THE MONO-AMIDATION OF PHOSPHATES AND PHOSPHONATES” (Board of Regents, The University of Texas System, priority 2020, published 2023):
Read-outs that look alike come from different tables or passages of the source. One block for each compound: values may come before it.

Legend:
Type in all cases: cell-based
[1] = system: ENO1-rescued (D423 ENO1) glioma cells; experiment: cells; settings: for activity in cell proliferation assay (FIG. 1): 5 days
Protocol: (§1) FIGS. 1A, 1B, 1C, and 1D show cell proliferation assays for enolase inhibitors HEX (1A), FLM37 (1B), CDP18 (1C), and VCY32 (1D) against (i) ENO1-deleted (D423), (ii) ENO1-rescued (D423 ENO1), and (iii) ENO1-wildtype (LN319) glioma cells. Cells were incubated with pro-drug inhibitor for 5 days. Then, cells were fixed and stained with crystal violet and quantified spectroscopically. Numerical labels indicate concentration of enolase inhibitor in nM.
(§2) FIGS. 2A, 2B, and 2C show plots of relative cell density (vertical axis) against concentration (horizontal axis, nM) of enolase inhibitors FLM37 (2A), CDP18 (2B), and VCY32 (2C) for (i) ENO1-deleted (D423), (ii) ENO1-rescued (D423 ENO1), and (iii) ENO1-wildtype (LN319) glioma cells.
(§3) See, Leonard et al. (2016) Nat. Chem. Biol. 12:1053-1058 and Satani et al. (2016) PLos One, 11:e0168739, each of which is incorporated by reference for all purposes. Then, cells were fixed and stained with crystal violet and quantified spectroscopically. Cell density as measured by crystal violet were plotted as a function of inhibitor.
(§4) FIGS. 1A, 1B, 1C, and 1D show representative cell proliferation assays for the compounds HEX (1A), FLM37 (1B), CDP18 (1C), and VCY32 (1D). For each compound, assays are run against (i) ENO1-deleted (D423), (ii) ENO1-rescued (D423 ENO1), and (iii) ENO1-wildtype (LN319) glioma cells.

[2] = system: ENO1-deleted (D423) glioma cells; experiment: Crystal violet cell proliferation assay, ENO1-deleted D423 cells; settings: for IC50: Glioma cell
Protocol: as §1, §2
(§5) Numerical labels indicate concentration of enolase inhibitor in nM.
as §3, §4

[3] = system: ENO1-wildtype (LN319) glioma cells; experiment: Crystal violet cell proliferation assay, ENO1-wildtype LN319 cells; settings: for activity in cell proliferation assay (FIG. 1): 5 days
Protocol: as §1, §2, §5, §3, §4

[4] = Glioma cell, table of Formula V compounds, R6 = POM, read-out: IC50, D423 EN01 (ENO1 +/+)
[5] = ENO1-deleted (D423), read-out: IC50,D423 (ENO1−/−)
[6] = LN-319, ENO1-wildtype (LN319), read-out: IC50, LN319 (ENO1+/+)
[7] = Glioma cell, footnote, experiment with VCY32, read-out: IC50 in reference to respective POMHEX control
[8] = table of Formula V compounds, R6 = POM, read-out: IC50, D423 EN01 (ENO1 +/+)

Compound: CC(C)(C)C(=O)OCOP(=O)(NCc1cccc(F)c1)C1CCCN(O)C1=O (stereo not drawn) [CDP12, ((((3-fluorobenzyl)amino)(1-hydroxy-2-oxopiperidin-3-yl)phosphoryl)oxy)methyl pivalate]
IC50 [1, 4]: 103 nM

Compound: CN(C)P(=O)(OCOC(=O)C(C)(C)C)C1CCCN(O)C1=O (stereo not drawn) [CDP21, (((dimethylamino)(1-hydroxy-2-oxopiperidin-3-yl)phosphoryl)oxy)methyl pivalate]
selectivity for ENO1-deleted cells [2]: selective for ENO1-deleted cells
IC50 ([2]; 120 h): 108 nM
IC50 ([2]; read-out: IC50,D423 (ENO1−/−)): 108 nM
IC50 ([1]; Glioma cell, read-out: IC50, D423 EN01 (ENO1 +/+)): 115 nM
IC50 ([1]; Glioma cell, read-out: IC50,D423 ENO1 (ENO1+/+)): 2170 nM
IC50 ([3]; LN-319, read-out: IC50, LN319 (ENO1+/+)): 5060 nM

IC50 [2, 5]: 58 nM
IC50 [3, 6]: 844 nM
IC50 ([3]; LN-319, text b400, read-out: IC50 values for ENO1-wildtype (LN319) glioma cells (i) (FIGS. 4A, 4B)): 24 nM
Compound: CCCCCCCCCCCCNP(=O)(O)C1CCCN(O)C1=O (stereo not drawn) [CDP22, N-dodecyl-P-(1-hydroxy-2-oxopiperidin-3-yl)phosphonamidic acid]
level of inhibition of ENO1-deleted (D423) cells (FIG. 3), in words ([2]; ENO1-deleted (D423)): sub-micromolar levels
inhibition / activity in ENO1-wildtype (LN319) cells (FIG. 3) ([3]; ENO1-wildtype (LN319)): shows activity

Compound: CNP(=O)(OCOC(=O)C(C)(C)C)C1CCCN(O)C1=O (stereo not drawn) [CDP23, (((1-hydroxy-2-oxopiperidin-3-yl)(methylamino)phosphoryl)oxy)methyl pivalate]
greater potency compared to CDP21 [2]: more than 2.5 fold
IC50 ([2]; 120 h, D423 cells, 5 days incubation, crystal violet, read-out: IC50): 40 nM
IC50 [2, 5]: 40 nM
selectivity for ENO1-deleted cells ([2]; crystal violet cell proliferation assay, 5 days): selective for ENO1-deleted cells
IC50 ([1]; Glioma cell, ENO1-rescued (D423 ENO1), read-out: IC50,D423 ENO1 (ENO1+/+)): 790 nM
IC50 [1, 4]: 62.6 nM
IC50 [3, 6]: 1500 nM

Compound: CC(C)(C)C(=O)OCOP(=O)(NCc1ccccc1)C1CCCN(O)C1=O (stereo not drawn) [FLM37, (((benzylamino)(1-hydroxy-2-oxopiperidin-3-yl)phosphoryl)oxy)methyl pivalate]
activity in cell proliferation assay (FIG. 1) ([2]; ENO1-deleted (D423), 5 days): activity at the micromolar range or better
activity in cell proliferation assay (FIG. 1) ([1]; ENO1-rescued (D423 ENO1)): activity at the micromolar range or better
IC50 [1, 4]: 244 nM
activity in cell proliferation assay (FIG. 1) ([3]; ENO1-wildtype (LN319)): activity at the micromolar range or better

Compound: CC(C)(C)C(=O)OCOP(=O)(NCc1ccccn1)C1CCCN(O)C1=O (stereo not drawn) [KY9, (((1-hydroxy-2-oxopiperidin-3-yl){(pyridin-2-ylmethyl)amino)phosphoryl)oxy)methyl pivalate]
IC50 [1, 4]: 96.2 nM

Compound: CC(C)(C)C(=O)OCOP(=O)(OCOC(=O)C(C)(C)C)C1CCCN(O)C1=O (stereo not drawn) [POMHEX, (((1-hydroxy-2-oxopiperidin-3-yl)phosphoryl)bis(oxy))bis(methylene) bis(2,2-dimethylpropanoate), reference compound]
IC50 [1, 7]: 41.5 nM
IC50 ([1]; Glioma cell, footnote, experiment with VCY34, read-out: IC50 in reference to respective POMHEX control): 217 nM
IC50 [1, 4]: 17.3 nM

Compound: CC(C)(C)C(=O)OCOP(=O)(NCc1ccc(F)cc1)C1CCCN(O)C1=O (stereo not drawn) [VCY19, ((((4-fluorobenzyl)amino)(1-hydroxy-2-oxopiperidin-3-yl)phosphoryl)oxy)methyl pivalate]
IC50 [1, 4]: 129 nM

Compound: CC(C)(C)C(=O)OCOP(=O)(NCC1CC1)C1CCCN(O)C1=O (stereo not drawn) [VCY32, ((((Cyclopropylmethyl)amino)(1-hydroxy-2-oxopiperidin-3-yl)phosphoryl)oxy)methyl pivalate]
activity in cell proliferation assay (FIG. 1) ([2]; ENO1-deleted (D423), 5 days): activity at the micromolar range or better
activity in cell proliferation assay (FIG. 1) ([1]; ENO1-rescued (D423 ENO1)): activity at the micromolar range or better
IC50 [1, 7]: 22 nM
IC50 [1, 4]: 22 nM
activity in cell proliferation assay (FIG. 1) ([3]; ENO1-wildtype (LN319)): activity at the micromolar range or better

Compound: ((((2,4-difluorobenzyi)amino)(1-hydrnxy-2-oxopiperidin-3-yl)phosphoryl)oxy)methyl pivalate [CDP14]
IC50 [1, 8]: 80.3 nM

Compound: ((((3,4-difluornhenzyl)amino)(1-hydro:xy-2-oxopiperidin-3-yl)phosphoryl)oxy)methyl pivalate [CDP13]
IC50 [1, 8]: 84.6 nM

Compound: ((((Cyclohexylmethyl)amino)(1-hydro:xy-2-oxopiperidin-3-yl)phosphoryl)oxy)methyl pivalate [CDP18]
activity in cell proliferation assay (FIG. 1) ([2]; ENO1-deleted (D423), 5 days): activity at the micromolar range or better
activity in cell proliferation assay (FIG. 1) ([1]; ENO1-rescued (D423 ENO1)): activity at the micromolar range or better
IC50 [1, 8]: 81.1 nM
activity in cell proliferation assay (FIG. 1) ([3]; ENO1-wildtype (LN319)): activity at the micromolar range or better
